{"source": "paper doi:10.1101/2025.07.02.662801v1", "about": "(biorxiv, 2025)", "assay_type_in_all_cases": "biochemical", "key": {"[1]": {"target": "T1, PTPN2 (TC-PTP); GST-TC-PTP catalytic domain (Homo sapiens, UniProt P17706)", "T1 sequence (P17706 1-314 limits assumed)": "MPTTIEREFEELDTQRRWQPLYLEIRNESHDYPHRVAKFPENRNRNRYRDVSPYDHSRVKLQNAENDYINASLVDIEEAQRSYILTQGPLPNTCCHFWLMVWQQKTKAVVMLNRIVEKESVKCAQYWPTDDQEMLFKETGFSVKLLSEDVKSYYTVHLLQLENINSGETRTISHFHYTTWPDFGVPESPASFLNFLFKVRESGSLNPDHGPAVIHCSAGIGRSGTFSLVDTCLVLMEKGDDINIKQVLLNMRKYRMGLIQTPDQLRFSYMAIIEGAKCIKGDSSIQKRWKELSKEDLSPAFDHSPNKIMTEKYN", "experiment": "DiFMUP fluorescence phosphatase assay"}, "[2]": {"target": "T2, PTPN1 (PTP1B); GST-PTP1B catalytic domain (Homo sapiens, UniProt P18031)", "T2 sequence (P18031 1-321 limits assumed)": "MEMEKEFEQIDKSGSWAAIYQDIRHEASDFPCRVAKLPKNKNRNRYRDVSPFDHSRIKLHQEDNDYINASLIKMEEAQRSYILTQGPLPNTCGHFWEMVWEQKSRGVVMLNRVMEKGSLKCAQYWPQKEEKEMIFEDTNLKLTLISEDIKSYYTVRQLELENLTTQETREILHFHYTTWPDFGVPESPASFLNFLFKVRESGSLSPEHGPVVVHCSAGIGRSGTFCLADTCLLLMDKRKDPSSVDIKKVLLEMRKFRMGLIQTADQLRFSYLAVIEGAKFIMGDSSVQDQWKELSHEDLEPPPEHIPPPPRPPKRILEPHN", "experiment": "DiFMUP fluorescence phosphatase assay"}, "PTPN9 (MEG2)": {"target": "T3, PTPN9 (MEG2) (Homo sapiens, UniProt P43378)", "T3 sequence (P43378 1-593)": "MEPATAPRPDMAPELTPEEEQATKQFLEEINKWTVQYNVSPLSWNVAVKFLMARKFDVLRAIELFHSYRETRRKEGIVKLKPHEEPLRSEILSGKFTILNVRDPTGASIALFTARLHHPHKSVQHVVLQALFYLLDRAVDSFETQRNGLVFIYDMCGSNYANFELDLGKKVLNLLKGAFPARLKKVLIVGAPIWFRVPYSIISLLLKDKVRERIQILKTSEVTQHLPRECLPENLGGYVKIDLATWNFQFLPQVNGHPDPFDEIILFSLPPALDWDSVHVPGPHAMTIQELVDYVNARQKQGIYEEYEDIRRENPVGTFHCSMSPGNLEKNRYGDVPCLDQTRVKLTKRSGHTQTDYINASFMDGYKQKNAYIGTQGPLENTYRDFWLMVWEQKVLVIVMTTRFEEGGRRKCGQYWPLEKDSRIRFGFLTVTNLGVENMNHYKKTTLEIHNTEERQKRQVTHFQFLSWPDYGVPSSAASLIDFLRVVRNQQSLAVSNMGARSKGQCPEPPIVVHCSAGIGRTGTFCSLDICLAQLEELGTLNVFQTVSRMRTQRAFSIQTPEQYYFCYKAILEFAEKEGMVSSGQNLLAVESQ", "experiment": "in vitro phosphatase activity curve"}}, "note": "Read-outs that look alike come from different tables or passages of the source."}
{"compound": "N#Cc1ccc2cc(Br)c(C(F)(F)P(=O)(O)O)cc2c1", "note": "[L598]", "values": [{"measurement": "IC50", "setting": "[1]; 50 mM HEPES pH 7.0, 3 mM DTT, 1 mg/mL BSA, 25 °C, DiFMUP at Km", "value": 0.489, "unit": "µM"}]}
{"compound": "N#CCc1ccc2cc(Br)c(C(F)(F)P(=O)(O)O)cc2c1", "note": "[KQ791]", "values": [{"measurement": "IC50", "setting": "[2]", "value": 0.188, "unit": "µM"}, {"measurement": "IC50", "setting": "PTPN9 (MEG2)", "value": 7.2, "unit": "µM"}, {"measurement": "IC50", "setting": "[1]", "value": 0.188, "unit": "µM"}]}
